The text below walks through data of patent publication US20070105788A1, “Azithromycin for treatment of granulomatous rosacea” (priority 2005, published 2007).

The test deals with granulomatous rosacea. Briefly: Case reports: treatment of patients with granulomatous rosacea. The test is classed as in vivo, human. Particulars: for clinical response of granulomatous rosacea at follow-up: two months later. The procedure: A patient presented with severe inflammatory diffuse facial granulomatous rosacea. The condition had been present for 6 years.
They were started on oral azithromycin 500 mg daily dose together with an estrogenic hormone, norgestimate/ethinyl estradiol (ORTHO TRI-CYCLEN®, Ortho-McNeil Pharmaceutical, Raritan, N.J.). […] Treatment was continued with a follow-up examination expected in another 6 to 8 weeks.
A patient presented with complaints of a “facial rash”. […] They were started on oral cephalexin. […] Treatment with dicloxicillin was initiated.
Oral azithromycin at a dosage of 500 mg daily was started, together with daily topical application of a sodium sulfacetamide 10% with sulfur 5% cream and a metronidazole cream.
A person presented with a facial rash.
Treatment was initiated with a variety of topical medications, including metronidazole gel, Elidel® (pimecrolimus, Novartis Pharmaceuticals Corp., New York, N.Y.), 2.4% hydrocortisone, and desonide cream.
The next therapy tried was oral doxycycline 100 mg twice daily. […] The patient was then started on Accutane® (Hoffman-LaRoche Inc., Nutley, N.J.) at an initial dosage of 20 mg per day, which was subsequently raised to 40 mg per day and then to 60 mg per day.
Treatment was subsequently initiated with azithromycin as the sole therapy, administered orally at a dosage of 250 mg daily for three weeks.

For the molecule `CC[C@H]1OC(=O)[C@H](C)[C@@H](O[C@H]2C[C@@](C)(OC)[C@@H](O)[C@H](C)O2)[C@H](C)[C@@H](O[C@@H]2O[C@H](C)C[C@H](N(C)C)[C@H]2O)[C@](C)(O)C[C@@H](C)CN(C)[C@H](C)[C@@H](O)[C@]1(C)O` [azithromycin], the “clinical response of granulomatous rosacea at follow-up” value runs as follows: (Example 1, azithromycin reduced to 500 mg every other day plus daily topical azaleic acid) “remained clear”; (Example 2, azithromycin decreased to 500 mg every other day, topicals continued) “no evidence of residual rosacea”. Moreover, the “clinical response of granulomatous rosacea” value is, setting by setting: (Example 1, oral azithromycin 500 mg daily together with norgestimate/ethinyl estradiol, 9 weeks after initiation) “greatly improved with only minimal residual facial erythema and no residual inflammatory lesions”; (Example 2, oral azithromycin 500 mg daily with topical sodium sulfacetamide 10%/sulfur 5% cream and metronidazole cream, six weeks after initiation) “minimally perceptible residual erythema and papulation”; (Example 3, azithromycin as sole therapy, orally 250 mg daily for three weeks) “remarkable improvement”. Where the note is “Example 3, following cessation of azithromycin therapy (250 mg daily for three weeks)”, the “recurrence of granulomatous rosacea” value is given as “has not had a recurrence”. Moreover, the “efficacy on signs and symptoms of granulomatous rosacea (general statement)” value (administered systemically for a period of several weeks or more) is reported as “effective”.
In the case of `CC1=C(C(=O)O)N2C(=O)[C@@H](NC(=O)[C@H](N)c3ccccc3)[C@H]2SC1` [cephalexin], the “clinical response of facial rash (later diagnosed granulomatous rosacea)” value (Example 2, patient, oral cephalexin, one month later) was “worsening pustules and tender nodules”.
With `Cc1onc(-c2c(Cl)cccc2Cl)c1C(=O)N[C@@H]1C(=O)N2[C@@H]1SC(C)(C)[C@@H]2C(=O)O` [dicloxicillin], the “clinical response of facial rash (later diagnosed granulomatous rosacea)” value (Example 2, dicloxicillin, six weeks later) was “persistent severe to worsening involvement”.
